# Data reported in patent US20020137929A1, “1 - (3-heterocyclylphenyl) isothiourea, -isourea, -guanidine and -amidine herbicidal agents” (Intellectual Property Department, BASF Aktiengesellschaft, priority 1998, published 2002).
# Key:
# ABUTH (Velvetleaf) [1] = assay: Postemergence herbicidal evaluation; type: in vivo, Abutilon theophrasti; details: postemergence
# Procedure, shortened: (§1)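 Scores (0–9) reflect plant stand, vigor, malformation, size, chlorosis and general appearance relative to control, read 4 to 5 weeks after treatment and averaged where tests were repeated. Application: about 0.0156–0.500 kg/ha sprayed at 40 psi onto two-week seedlings.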
# AMBEL (Ragweed, Common) = assay: Postemergence herbicidal evaluation; type: in vivo, Ambrosia artemisifolia; details: postemergence
# Procedure, shortened: as §1
# ECHCG (Barnyardgrass) = assay: Postemergence herbicidal evaluation; type: in vivo, Echinochloa crus-galli; details: postemergence
# Procedure, shortened: as §1
# SETVI (Foxtail, Green) [2] = assay: Postemergence herbicidal evaluation; type: in vivo, Setaria viridis; details: postemergence
# Procedure, shortened: as §1
# [3] = test system: GLXMAW (Soybean, Williams); assay: Postemergence herbicidal evaluation; type: in vivo, Glycine max, (L.) Merr. cv Williams; details: postemergence
# Procedure, shortened: as §1
# ORYSAT (Rice, Tebonnet) = assay: Postemergence herbicidal evaluation; type: in vivo, Oryza sativa, (L.) Tebonnet; details: postemergence
# Procedure, shortened: as §1
# [4] = test system: TRZAWR (Wheat, Winter, cv Riband); assay: Postemergence herbicidal evaluation; type: in vivo, Triticum aestivum; details: postemergence
# Procedure, shortened: as §1
# ABUTH (Velvetleaf) [5] = assay: Preemergence herbicidal evaluation; type: in vivo, Abutilon theophrasti; details: rated 4-5 weeks after treatment; for ABUTH rating: preemergence, 0-9 scale
# Procedure, shortened: (§2)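 Sown cups got a single aqueous acetone spray of test compound (roughly 0.0156–0.500 kg/ha) before seedlings emerged. Evaluation, 4–5 weeks on, used a 0–9 visual scale covering plant stand, vigor, size, malformation, chlorosis and general appearance compared with controls.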
# CASOB (Sicklepod) = assay: Preemergence herbicidal evaluation; type: in vivo, Cassia obtusifolia; details: rated 4-5 weeks after treatment; for CASOB rating: preemergence, 0-9 scale
# Procedure, shortened: as §2
# SETVI (Foxtail, Green) [6] = assay: Preemergence herbicidal evaluation; type: in vivo, Setaria viridis; details: rated 4-5 weeks after treatment; for SETVI rating: preemergence, 0-9 scale
# Procedure, shortened: as §2
# MOOVA (Monochoria) = assay: Preemergence weed control under flooded paddy conditions; type: in vivo, Monochoria vaginalis; details: rated 3-4 weeks after treatment
# Procedure, shortened: (§3)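 Using flooded silt loam (water 1.5 to 3 cm deep), seeds sown in the top 0.5 cm were exposed preemergence to compound pipetted into the flood at about 0.0313 to 0.500 kg/ha. Effects were scored 0-9 by eye three to four weeks later.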
# [7] = test system: SAGPY (Arrowhead (Pygmaea)); assay: as above; type: in vivo, Sagittaria pygmaea; details: rated 3-4 weeks after treatment
# Procedure, shortened: as §3
# CYPIR (Rice Flatsedge) = assay: Postemergence weed control under flooded paddy conditions; type: in vivo, Cyperus iria; details: postemergence weeds, rated 3 to 4 weeks after treatment
# Procedure, shortened: (§4)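 Flood-water application, about 0.0313–0.500 kg/ha a.i. in aqueous/acetone 50/50 v/v; water depth 1.5–3 cm throughout. Weeds 3–5 cm, rice 1.5–2.5 leaf. Greenhouse; 0–9 visual rating vs control at 3–4 wk.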
# [8] = test system: SAGPY (Arrowhead (Pygmaea)); assay: as above; type: in vivo, Sagittaria pygmaea; details: postemergence weeds, rated 3 to 4 weeks after treatment
# Procedure, shortened: as §4
smiles,measurement,setting,value
"C#CCOC(=O)CC1SC(=Nc2cc(-n3c(=O)cc(C(F)(F)F)n(C)c3=O)c(F)cc2Cl)N(CC=C)C1=O (centres unmarked) [Compound 67, 2-Propynyl 3-allyl-2-{{2-chloro-5-[3,6-dihydro-3-methyl-2,6-dioxo-4-(trifluoromethyl)-1(2H)-pyrimidinyl]-4-fluorophenyl}imino}-4-oxo-5-thiazolidineacetate]",ABUTH herbicidal rating,ABUTH (Velvetleaf) [1]; rate 0.0158 kg/ha,5.0
same,ABUTH herbicidal rating,ABUTH (Velvetleaf) [1]; rate 0.0315 kg/ha,9.0
same,ABUTH herbicidal rating,ABUTH (Velvetleaf) [1]; rate 0.0630 kg/ha,9.0
same,AMBEL herbicidal rating,"AMBEL (Ragweed, Common); rate 0.0158 kg/ha",6.0
same,AMBEL herbicidal rating,"AMBEL (Ragweed, Common); rate 0.0315 kg/ha",7.0
same,AMBEL herbicidal rating,"AMBEL (Ragweed, Common); rate 0.0630 kg/ha",7.0
same,ECHCG herbicidal rating,ECHCG (Barnyardgrass); rate 0.0158 kg/ha,3.0
same,ECHCG herbicidal rating,ECHCG (Barnyardgrass); rate 0.0315 kg/ha,6.0
same,ECHCG herbicidal rating,ECHCG (Barnyardgrass); rate 0.0630 kg/ha,7.0
same,SETVI herbicidal rating,"SETVI (Foxtail, Green) [2]; rate 0.0158 kg/ha",9.0
same,SETVI herbicidal rating,"SETVI (Foxtail, Green) [2]; rate 0.0315 kg/ha",9.0
same,SETVI herbicidal rating,"SETVI (Foxtail, Green) [2]; rate 0.0630 kg/ha",9.0
same,GLXMAW herbicidal rating,[3]; rate 0.0158 kg/ha,8.5
same,GLXMAW herbicidal rating,[3]; rate 0.0315 kg/ha,7.5
same,GLXMAW herbicidal rating,[3]; rate 0.0630 kg/ha,7.5
same,ORYSAT herbicidal rating,"ORYSAT (Rice, Tebonnet); rate 0.0158 kg/ha",4.0
same,ORYSAT herbicidal rating,"ORYSAT (Rice, Tebonnet); rate 0.0315 kg/ha",4.5
same,ORYSAT herbicidal rating,"ORYSAT (Rice, Tebonnet); rate 0.0630 kg/ha",5.0
same,TRZAWR herbicidal rating,[4]; rate 0.0158 kg/ha,5.0
same,TRZAWR herbicidal rating,[4]; rate 0.0315 kg/ha,6.0
same,TRZAWR herbicidal rating,[4]; rate 0.0630 kg/ha,6.5
same,Preemergence herbicidal rating ABUTH,ABUTH (Velvetleaf) [5]; rate 0.0156 kg/ha,1.0
same,Preemergence herbicidal rating ABUTH,ABUTH (Velvetleaf) [5]; rate 0.0313 kg/ha,9.0
same,Preemergence herbicidal rating ABUTH,ABUTH (Velvetleaf) [5]; rate 0.0625 kg/ha,9.0
same,Preemergence herbicidal rating ABUTH,ABUTH (Velvetleaf) [5]; rate 0.1250 kg/ha,7.0
same,Preemergence herbicidal rating ABUTH,ABUTH (Velvetleaf) [5]; rate 0.2500 kg/ha,9.0
same,Preemergence herbicidal rating CASOB,CASOB (Sicklepod); rate 0.0156 kg/ha,0.0
same,Preemergence herbicidal rating CASOB,CASOB (Sicklepod); rate 0.0313 kg/ha,0.0
same,Preemergence herbicidal rating CASOB,CASOB (Sicklepod); rate 0.0625 kg/ha,0.0
same,Preemergence herbicidal rating CASOB,CASOB (Sicklepod); rate 0.1250 kg/ha,2.0
same,Preemergence herbicidal rating CASOB,CASOB (Sicklepod); rate 0.2500 kg/ha,2.0
same,Preemergence herbicidal rating SETVI,"SETVI (Foxtail, Green) [6]; rate 0.0156 kg/ha",0.0
same,Preemergence herbicidal rating SETVI,"SETVI (Foxtail, Green) [6]; rate 0.0313 kg/ha",0.0
same,Preemergence herbicidal rating SETVI,"SETVI (Foxtail, Green) [6]; rate 0.0625 kg/ha",0.0
same,Preemergence herbicidal rating SETVI,"SETVI (Foxtail, Green) [6]; rate 0.1250 kg/ha",6.0
same,Preemergence herbicidal rating SETVI,"SETVI (Foxtail, Green) [6]; rate 0.2500 kg/ha",7.0
same,MOOVA herbicidal effect rating,MOOVA (Monochoria); 0.0313 kg/ha,9.0
same,MOOVA herbicidal effect rating,MOOVA (Monochoria); 0.0625 kg/ha,9.0
same,MOOVA herbicidal effect rating,MOOVA (Monochoria); 0.1250 kg/ha,9.0
same,MOOVA herbicidal effect rating,MOOVA (Monochoria); 0.2500 kg/ha,9.0
same,SAGPY herbicidal effect rating,[7]; 0.0313 kg/ha,0.0
same,SAGPY herbicidal effect rating,[7]; 0.0625 kg/ha,4.0
same,SAGPY herbicidal effect rating,[7]; 0.1250 kg/ha,4.0
same,SAGPY herbicidal effect rating,[7]; 0.2500 kg/ha,6.0
same,Herbicidal rating CYPIR,CYPIR (Rice Flatsedge); Rate 0.0313 kg/ha,5.0
same,Herbicidal rating CYPIR,CYPIR (Rice Flatsedge); Rate 0.0625 kg/ha,5.0
same,Herbicidal rating CYPIR,CYPIR (Rice Flatsedge); Rate 0.1250 kg/ha,5.0
same,Herbicidal rating CYPIR,CYPIR (Rice Flatsedge); Rate 0.2500 kg/ha,8.0
same,Herbicidal rating SAGPY,[8]; Rate 0.0313 kg/ha,0.0
same,Herbicidal rating SAGPY,[8]; Rate 0.0625 kg/ha,4.0
same,Herbicidal rating SAGPY,[8]; Rate 0.1250 kg/ha,4.0
same,Herbicidal rating SAGPY,[8]; Rate 0.2500 kg/ha,6.0
"CN1C(=O)C(CC(=O)OCCF)SC1=Nc1cc(-n2c(=O)cc(C(F)(F)F)n(C)c2=O)c(F)cc1Cl (centres unmarked) [Compound 93, 2-Fluoroethyl 2-{{2-chloro-5-[3,6-dihydro-3-methyl-2,6-dioxo-4-(trifluoromethyl)-1(2H)-pyrimidinyl]-4-fluorophenyl}imino}-3-methyl-4-oxo-5-thiazolidineacetate]",ABUTH herbicidal rating,ABUTH (Velvetleaf) [1]; rate 0.0158 kg/ha,9.0
same,ABUTH herbicidal rating,ABUTH (Velvetleaf) [1]; rate 0.0315 kg/ha,9.0
same,ABUTH herbicidal rating,ABUTH (Velvetleaf) [1]; rate 0.0630 kg/ha,9.0
same,AMBEL herbicidal rating,"AMBEL (Ragweed, Common); rate 0.0158 kg/ha",9.0
same,AMBEL herbicidal rating,"AMBEL (Ragweed, Common); rate 0.0315 kg/ha",9.0
same,AMBEL herbicidal rating,"AMBEL (Ragweed, Common); rate 0.0630 kg/ha",9.0
same,ECHCG herbicidal rating,ECHCG (Barnyardgrass); rate 0.0158 kg/ha,0.0
same,ECHCG herbicidal rating,ECHCG (Barnyardgrass); rate 0.0315 kg/ha,2.0
same,ECHCG herbicidal rating,ECHCG (Barnyardgrass); rate 0.0630 kg/ha,7.0
same,SETVI herbicidal rating,"SETVI (Foxtail, Green) [2]; rate 0.0158 kg/ha",9.0
same,SETVI herbicidal rating,"SETVI (Foxtail, Green) [2]; rate 0.0315 kg/ha",9.0
same,SETVI herbicidal rating,"SETVI (Foxtail, Green) [2]; rate 0.0630 kg/ha",9.0
same,GLXMAW herbicidal rating,[3]; rate 0.0158 kg/ha,8.5
same,GLXMAW herbicidal rating,[3]; rate 0.0315 kg/ha,9.0
same,GLXMAW herbicidal rating,[3]; rate 0.0630 kg/ha,9.0
same,ORYSAT herbicidal rating,"ORYSAT (Rice, Tebonnet); rate 0.0158 kg/ha",1.0
same,ORYSAT herbicidal rating,"ORYSAT (Rice, Tebonnet); rate 0.0315 kg/ha",4.0
same,ORYSAT herbicidal rating,"ORYSAT (Rice, Tebonnet); rate 0.0630 kg/ha",6.0
same,TRZAWR herbicidal rating,[4]; rate 0.0158 kg/ha,5.0
same,TRZAWR herbicidal rating,[4]; rate 0.0315 kg/ha,6.0
same,TRZAWR herbicidal rating,[4]; rate 0.0630 kg/ha,7.5
same,ABUTH rating,ABUTH (Velvetleaf) [5]; 0.0313 kg/ha,5.0
same,ABUTH rating,ABUTH (Velvetleaf) [5]; 0.0625 kg/ha,9.0
same,ABUTH rating,ABUTH (Velvetleaf) [5]; 0.1250 kg/ha,9.0
same,ABUTH rating,ABUTH (Velvetleaf) [5]; 0.2500 kg/ha,9.0
same,CASOB rating,CASOB (Sicklepod); 0.0313 kg/ha,0.0
same,CASOB rating,CASOB (Sicklepod); 0.0625 kg/ha,0.0
same,CASOB rating,CASOB (Sicklepod); 0.1250 kg/ha,0.0
same,CASOB rating,CASOB (Sicklepod); 0.2500 kg/ha,9.0
same,SETVI rating,"SETVI (Foxtail, Green) [6]; 0.0313 kg/ha",0.0
same,SETVI rating,"SETVI (Foxtail, Green) [6]; 0.0625 kg/ha",0.0
same,SETVI rating,"SETVI (Foxtail, Green) [6]; 0.1250 kg/ha",0.0
same,SETVI rating,"SETVI (Foxtail, Green) [6]; 0.2500 kg/ha",9.0
same,MOOVA herbicidal effect rating,MOOVA (Monochoria); 0.0313 kg/ha,9.0
same,MOOVA herbicidal effect rating,MOOVA (Monochoria); 0.0625 kg/ha,9.0
same,MOOVA herbicidal effect rating,MOOVA (Monochoria); 0.1250 kg/ha,9.0
same,MOOVA herbicidal effect rating,MOOVA (Monochoria); 0.2500 kg/ha,9.0
same,SAGPY herbicidal effect rating,[7]; 0.0313 kg/ha,0.0
same,SAGPY herbicidal effect rating,[7]; 0.0625 kg/ha,0.0
same,SAGPY herbicidal effect rating,[7]; 0.1250 kg/ha,3.0
same,SAGPY herbicidal effect rating,[7]; 0.2500 kg/ha,9.0
same,Herbicidal rating CYPIR,CYPIR (Rice Flatsedge); Rate 0.0313 kg/ha,0.0
same,Herbicidal rating CYPIR,CYPIR (Rice Flatsedge); Rate 0.0625 kg/ha,0.0
same,Herbicidal rating CYPIR,CYPIR (Rice Flatsedge); Rate 0.1250 kg/ha,0.0
same,Herbicidal rating CYPIR,CYPIR (Rice Flatsedge); Rate 0.2500 kg/ha,0.0
same,Herbicidal rating SAGPY,[8]; Rate 0.0313 kg/ha,0.0
same,Herbicidal rating SAGPY,[8]; Rate 0.0625 kg/ha,0.0
same,Herbicidal rating SAGPY,[8]; Rate 0.1250 kg/ha,3.0
same,Herbicidal rating SAGPY,[8]; Rate 0.2500 kg/ha,9.0
